The source made the active and inactive calls. No cut-off for these calls is given here.
How the values were obtained:
[1] = tested on: MRC5; test: Cytotoxicity against human MRC5 cells; format: cell-based
[2] = tested on: Plasmodium falciparum; test: Antimicrobial activity against chloroquine-resistant Plasmodium falciparum K1 infected in human erythrocytes assessed as inhibition of parasite replication; format: functional, organism-based
[3] = Inhibition of Escherichia coli IspC
[4] = Inhibition of Plasmodium falciparum IspC
[5] = tested on: Plasmodium berghei; test: Antimalarial activity against Plasmodium berghei ANKA infected in Swiss mouse assessed as suppression of infected RBC at 40 mg/kg, ip bid for 5 days coadministered with ritonavir 10 mg/kg, po; format: functional
[6] = tested on: Plasmodium berghei; test: Antimalarial activity against Plasmodium berghei ANKA infected in Swiss mouse assessed as survival at 40 mg/kg, ip bid for 5 days coadministered with ritonavir 10 mg/kg, po
[7] = tested on: Plasmodium berghei; test: Antimalarial activity against Plasmodium berghei ANKA infected in Swiss mouse assessed as suppression of infected RBC at 10 mg/kg, ip qd for 5 days coadministered with ritonavir 10 mg/kg, po measured on day 4; format: functional
[8] = tested on: Plasmodium berghei; test: Antimalarial activity against Plasmodium berghei ANKA infected in Swiss mouse assessed as survival at 10 mg/kg, ip qd for 5 days coadministered with ritonavir 10 mg/kg, po
[9] = Plasmodium falciparum, K1, read-out: IC50

Structure (SMILES) | IC50 [1] | IC50 [2, 9] | IC50 ([3]; read-out: IC50) | IC50 ([4]; read-out: IC50) | Activity [5] | Survival [6] | Activity [7] | Survival [8] | IC50 [2] | IC50 [3] | IC50 [4]
CN(O)C(=O)CCC(c1ccc(Cl)c(Cl)c1)P(=O)(O)O (centres undefined) | > 64000 nM | 410 nM | 290 nM | 4 nM | – | – | – | – | – | – | –
CN(O)C(=O)CCC(c1ccc(F)c(F)c1)P(=O)(O)O (centres undefined) | > 64000 nM | 290 nM | – | 3 nM | 78% | inactive | – | – | – | – | –
CCN(CC)CCCC(C)Nc1ccnc2cc(Cl)ccc12 (centres undefined) [CHLOROQUINE] | – | – | – | – | – | – | 98% | Active | – | – | –
O=C(CCC(c1ccc(F)c(F)c1)P(=O)(O)O)NO (centres undefined) | > 64000 nM | 380 nM | 210 nM | 3 nM | 89% | Active | – | – | – | – | –
CCN(O)C(=O)CCC(c1ccccc1)P(=O)(O)O (centres undefined) | > 64000 nM | 1300 nM | 15000 nM | 15 nM | – | – | – | – | – | – | –
O=C(CCC(c1cccc2ccccc12)P(=O)(O)O)NO (centres undefined) | > 64000 nM | 2400 nM | 7400 nM | 37 nM | – | – | – | – | – | – | –
CN(O)C(=O)CCC(c1cccc2ccccc12)P(=O)(O)O (centres undefined) | > 62000 nM | 970 nM | 3800 nM | 9 nM | – | – | – | – | – | – | –
CC(C)N(O)C(=O)CCC(c1ccccc1)P(=O)(O)O (centres undefined) | > 64000 nM | – | – | – | – | – | – | – | Not Active | Not Active | Not Active
O=CN(O)CCCP(=O)(O)O [FOSMIDOMYCIN] | > 62000 nM | 3700 nM | 220 nM | 140 nM | 92% | Active | – | – | – | – | –
